Test [1] deals with Growth hormone secretagogue receptor type 1 (Homo sapiens, UniProt Q92847).
Test [2] concerns the target T1, Alpha-1A adrenergic receptor (Homo sapiens, UniProt P35348).
T1 sequence (P35348 whole entry): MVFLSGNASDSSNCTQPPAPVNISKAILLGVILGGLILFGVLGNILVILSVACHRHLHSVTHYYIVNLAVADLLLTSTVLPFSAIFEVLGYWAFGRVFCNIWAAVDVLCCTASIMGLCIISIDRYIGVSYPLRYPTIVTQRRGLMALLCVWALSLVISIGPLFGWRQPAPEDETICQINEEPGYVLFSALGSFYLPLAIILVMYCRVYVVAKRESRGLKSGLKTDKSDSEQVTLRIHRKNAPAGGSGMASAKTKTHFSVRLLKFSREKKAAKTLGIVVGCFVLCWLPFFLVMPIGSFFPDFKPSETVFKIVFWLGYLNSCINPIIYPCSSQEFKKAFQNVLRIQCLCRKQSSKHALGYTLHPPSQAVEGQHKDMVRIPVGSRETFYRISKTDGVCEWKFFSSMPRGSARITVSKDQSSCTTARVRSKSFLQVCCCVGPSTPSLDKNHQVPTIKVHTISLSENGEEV
The class given is functional, cell-based.

Test [3] concerns the target T2, Adenosine receptor A3 (Homo sapiens, UniProt P0DMS8).
T2 sequence (P0DMS8 whole entry): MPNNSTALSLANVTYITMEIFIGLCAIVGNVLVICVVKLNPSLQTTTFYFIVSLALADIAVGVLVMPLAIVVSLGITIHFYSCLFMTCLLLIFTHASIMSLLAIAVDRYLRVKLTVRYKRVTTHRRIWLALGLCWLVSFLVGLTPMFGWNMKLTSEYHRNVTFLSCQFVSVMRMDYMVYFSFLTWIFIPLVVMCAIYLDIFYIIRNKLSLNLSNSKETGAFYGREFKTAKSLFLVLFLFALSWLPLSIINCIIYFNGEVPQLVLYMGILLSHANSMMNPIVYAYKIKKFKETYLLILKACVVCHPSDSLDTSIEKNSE

In test [4] the target is Beta-1 adrenergic receptor (Homo sapiens, UniProt P08588). It is filed as functional.
Test [5] concerns the target D(3) dopamine receptor (Homo sapiens, UniProt P35462).
Test [6] has as its target cGMP-inhibited 3',5'-cyclic phosphodiesterase 3A (Homo sapiens, UniProt Q14432). It is filed as functional.
Test [7] addresses T3, B2 bradykinin receptor (Homo sapiens, UniProt P30411).
T3 sequence (P30411 whole entry): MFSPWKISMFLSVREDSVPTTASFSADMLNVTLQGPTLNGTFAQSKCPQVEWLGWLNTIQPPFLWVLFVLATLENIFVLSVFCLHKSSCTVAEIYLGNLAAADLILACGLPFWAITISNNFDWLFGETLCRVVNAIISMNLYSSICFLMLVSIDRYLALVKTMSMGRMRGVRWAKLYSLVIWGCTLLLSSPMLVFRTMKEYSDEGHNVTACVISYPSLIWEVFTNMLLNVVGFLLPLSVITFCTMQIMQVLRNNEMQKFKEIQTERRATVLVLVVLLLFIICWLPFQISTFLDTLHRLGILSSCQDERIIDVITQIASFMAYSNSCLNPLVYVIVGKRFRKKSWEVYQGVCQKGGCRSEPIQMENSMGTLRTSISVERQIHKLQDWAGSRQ

In test [8] the target is T4, Type-1 angiotensin II receptor (Homo sapiens, UniProt P30556).
T4 sequence (P30556 whole entry): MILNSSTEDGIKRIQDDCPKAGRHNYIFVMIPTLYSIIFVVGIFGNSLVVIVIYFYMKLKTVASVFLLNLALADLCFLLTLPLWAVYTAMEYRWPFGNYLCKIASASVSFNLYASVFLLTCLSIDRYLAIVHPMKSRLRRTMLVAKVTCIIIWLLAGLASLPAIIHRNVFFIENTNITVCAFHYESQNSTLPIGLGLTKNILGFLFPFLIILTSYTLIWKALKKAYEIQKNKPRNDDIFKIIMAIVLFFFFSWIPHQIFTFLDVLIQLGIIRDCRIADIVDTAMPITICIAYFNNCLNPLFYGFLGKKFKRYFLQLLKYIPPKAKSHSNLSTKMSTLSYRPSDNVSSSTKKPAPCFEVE

Test [9] addresses 5-hydroxytryptamine receptor 2B (Homo sapiens, UniProt P41595). The class given is functional, cell-based.
The target of test [10] is T5, Alpha-2A adrenergic receptor (Homo sapiens, UniProt P08913).
T5 sequence (P08913 whole entry): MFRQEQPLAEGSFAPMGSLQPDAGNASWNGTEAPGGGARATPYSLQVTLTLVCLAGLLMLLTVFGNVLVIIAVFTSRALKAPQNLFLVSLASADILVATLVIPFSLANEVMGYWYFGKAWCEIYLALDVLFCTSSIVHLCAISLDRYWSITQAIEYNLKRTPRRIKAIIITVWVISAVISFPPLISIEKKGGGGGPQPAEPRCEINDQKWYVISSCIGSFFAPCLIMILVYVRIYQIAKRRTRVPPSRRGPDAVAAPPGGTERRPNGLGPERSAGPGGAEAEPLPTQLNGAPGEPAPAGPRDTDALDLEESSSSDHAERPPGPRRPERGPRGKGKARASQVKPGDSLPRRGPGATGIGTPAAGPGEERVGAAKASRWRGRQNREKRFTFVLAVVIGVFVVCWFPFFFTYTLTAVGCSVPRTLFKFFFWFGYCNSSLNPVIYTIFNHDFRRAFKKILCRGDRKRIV
It is filed as functional, cell-based.

Where only a bound is given, the exact number is not on record here.
Also: assay procedure not described here.

cGMP-inhibited 3',5'-cyclic phosphodiesterase 3A, sequence (Q14432 whole entry): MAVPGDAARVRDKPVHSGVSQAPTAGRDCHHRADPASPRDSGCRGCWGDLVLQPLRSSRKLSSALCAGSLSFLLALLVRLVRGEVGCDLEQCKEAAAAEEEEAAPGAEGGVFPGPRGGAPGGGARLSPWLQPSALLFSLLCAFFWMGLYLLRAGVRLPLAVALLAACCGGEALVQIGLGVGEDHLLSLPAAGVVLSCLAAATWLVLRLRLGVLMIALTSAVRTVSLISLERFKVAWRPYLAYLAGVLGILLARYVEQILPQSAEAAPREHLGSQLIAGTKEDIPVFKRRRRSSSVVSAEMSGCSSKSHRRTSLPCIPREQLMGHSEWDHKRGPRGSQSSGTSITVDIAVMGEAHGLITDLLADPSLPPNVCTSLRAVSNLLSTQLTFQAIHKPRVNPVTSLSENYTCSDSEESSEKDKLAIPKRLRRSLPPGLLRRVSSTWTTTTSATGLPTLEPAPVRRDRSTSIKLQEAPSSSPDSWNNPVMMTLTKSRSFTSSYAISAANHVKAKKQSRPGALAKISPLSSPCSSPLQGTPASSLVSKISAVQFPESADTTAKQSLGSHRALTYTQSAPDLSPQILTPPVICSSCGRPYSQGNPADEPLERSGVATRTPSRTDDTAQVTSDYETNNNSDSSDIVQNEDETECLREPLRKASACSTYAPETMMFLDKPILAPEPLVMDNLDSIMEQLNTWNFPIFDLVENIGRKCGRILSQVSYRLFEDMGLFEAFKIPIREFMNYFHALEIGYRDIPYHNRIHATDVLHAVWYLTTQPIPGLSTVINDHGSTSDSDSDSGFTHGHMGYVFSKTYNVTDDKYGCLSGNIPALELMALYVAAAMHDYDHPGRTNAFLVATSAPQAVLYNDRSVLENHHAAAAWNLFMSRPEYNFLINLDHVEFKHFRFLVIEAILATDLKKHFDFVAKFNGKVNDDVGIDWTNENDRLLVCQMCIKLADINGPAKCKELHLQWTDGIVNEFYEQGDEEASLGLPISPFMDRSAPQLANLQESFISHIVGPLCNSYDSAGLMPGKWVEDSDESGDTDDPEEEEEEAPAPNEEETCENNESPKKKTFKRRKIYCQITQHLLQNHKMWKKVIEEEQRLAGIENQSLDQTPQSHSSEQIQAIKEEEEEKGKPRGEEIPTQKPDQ
D(3) dopamine receptor, sequence (P35462 whole entry): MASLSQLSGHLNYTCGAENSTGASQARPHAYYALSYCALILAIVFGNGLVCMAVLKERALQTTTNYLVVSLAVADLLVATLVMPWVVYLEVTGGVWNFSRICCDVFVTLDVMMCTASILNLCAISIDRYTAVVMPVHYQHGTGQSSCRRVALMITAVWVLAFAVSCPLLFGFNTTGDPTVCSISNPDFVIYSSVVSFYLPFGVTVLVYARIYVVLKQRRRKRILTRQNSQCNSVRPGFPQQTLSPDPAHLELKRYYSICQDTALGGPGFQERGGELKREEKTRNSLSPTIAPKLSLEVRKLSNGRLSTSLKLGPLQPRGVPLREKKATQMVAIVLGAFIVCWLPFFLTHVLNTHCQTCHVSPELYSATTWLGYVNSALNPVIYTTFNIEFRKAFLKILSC
5-hydroxytryptamine receptor 2B, sequence (P41595 whole entry): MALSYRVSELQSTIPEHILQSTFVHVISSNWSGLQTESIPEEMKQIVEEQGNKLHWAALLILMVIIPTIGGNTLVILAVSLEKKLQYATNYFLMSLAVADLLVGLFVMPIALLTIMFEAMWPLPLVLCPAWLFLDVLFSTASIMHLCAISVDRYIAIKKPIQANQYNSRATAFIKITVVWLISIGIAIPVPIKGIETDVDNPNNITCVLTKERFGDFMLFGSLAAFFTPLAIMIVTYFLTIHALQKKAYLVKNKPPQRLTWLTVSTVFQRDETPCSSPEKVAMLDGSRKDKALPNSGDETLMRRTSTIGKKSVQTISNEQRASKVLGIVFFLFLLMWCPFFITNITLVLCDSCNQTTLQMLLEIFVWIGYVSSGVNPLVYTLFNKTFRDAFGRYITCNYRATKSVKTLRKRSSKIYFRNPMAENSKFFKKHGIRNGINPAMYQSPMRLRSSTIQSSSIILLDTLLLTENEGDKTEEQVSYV
Beta-1 adrenergic receptor, sequence (P08588 whole entry): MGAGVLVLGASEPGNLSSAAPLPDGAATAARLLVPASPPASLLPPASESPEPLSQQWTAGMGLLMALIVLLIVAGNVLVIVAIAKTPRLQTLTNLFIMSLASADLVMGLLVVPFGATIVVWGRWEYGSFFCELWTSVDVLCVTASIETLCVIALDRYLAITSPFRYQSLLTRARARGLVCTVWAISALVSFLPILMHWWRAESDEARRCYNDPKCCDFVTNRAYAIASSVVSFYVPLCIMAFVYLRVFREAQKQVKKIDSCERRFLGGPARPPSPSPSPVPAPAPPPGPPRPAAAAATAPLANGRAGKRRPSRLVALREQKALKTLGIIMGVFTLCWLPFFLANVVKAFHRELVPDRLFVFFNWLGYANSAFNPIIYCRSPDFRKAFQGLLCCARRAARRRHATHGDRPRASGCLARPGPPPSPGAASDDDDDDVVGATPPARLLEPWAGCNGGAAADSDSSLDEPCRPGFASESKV
Growth hormone secretagogue receptor type 1, sequence (Q92847 whole entry): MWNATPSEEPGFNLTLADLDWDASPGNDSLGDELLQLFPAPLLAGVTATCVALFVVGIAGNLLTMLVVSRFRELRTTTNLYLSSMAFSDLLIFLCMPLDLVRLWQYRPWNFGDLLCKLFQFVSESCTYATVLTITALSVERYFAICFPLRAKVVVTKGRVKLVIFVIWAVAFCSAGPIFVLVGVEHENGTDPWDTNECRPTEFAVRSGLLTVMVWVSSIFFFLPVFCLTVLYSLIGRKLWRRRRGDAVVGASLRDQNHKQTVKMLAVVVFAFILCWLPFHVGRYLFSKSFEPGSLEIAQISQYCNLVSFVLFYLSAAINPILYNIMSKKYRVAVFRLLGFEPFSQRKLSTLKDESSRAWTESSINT

For `COc1cc2[nH]c(C)c(CCN3CCN(c4ccccc4)CC3)c2cc1OC` [OXYPERTINE], the AC50 in test [1] was more than 30 µM; in test [2], more than 30 µM; in [3] it was 20 µM; in [4] it was 26 µM; in test [5], more than 10 µM; in test [6], more than 30 µM. For the same compound, the AC50 in test [7], in test [8], in test [9] and in [10] was more than 30 µM each time.

Consider `CC(=O)[C@H]1CC[C@H]2[C@@H]3C[C@H](C)C4=CC(=O)CC[C@]4(C)[C@H]3[C@@H](O)C[C@]12C` [MEDRYSONE], for which the AC50 in [1] is more than 10 µM; in test [2], more than 30 µM; in test [3], more than 10 µM; in test [4], more than 10 µM; in test [5], more than 30 µM; in [6], more than 30 µM. Besides, the AC50 in test [7], in test [8], in test [9] and in test [10] was more than 10 µM throughout.

For `Oc1ccc(CCNCCCCCCNCCc2ccccc2)cc1O` [DOPEXAMINE], the AC50 is more than 30 µM in test [1]; more than 30 µM in [2]; 12 µM in test [3]; more than 30 µM in [4]; 0.16 µM in test [5]; more than 30 µM in test [6]. Further, the AC50 in [7], in test [8], in test [9] and in test [10] was more than 30 µM in each case.

`C=CC[N+]1([C@H]2C[C@H]3[C@@H]4CC[C@H]5C[C@H](O)[C@@H](N6CCOCC6)C[C@]5(C)[C@H]4CC[C@]3(C)[C@H]2OC(C)=O)CCCC1` [ROCURONIUM]: the AC50 in [1], in test [2], in test [3], in test [4], in test [5] and in test [6] was more than 30 µM in each case. The AC50 in test [7] was more than 30 µM; in test [8], 1.2 µM; in [9] it was more than 30 µM; in test [10], more than 30 µM.

`Clc1ccc(CCC(Cn2ccnc2)Sc2c(Cl)cccc2Cl)cc1` (stereo not given) [BUTOCONAZOLE]: the AC50 in [1] is more than 30 µM; in [2] it was more than 30 µM; in test [3], 16 µM; in test [4], more than 30 µM; in [5] it was more than 30 µM; in test [6], more than 30 µM. The AC50 was more than 30 µM in test [7], 30 µM in [8], more than 30 µM in test [9] and more than 30 µM in test [10].

On to `CCCCOc1ccc(C(=O)CCN2CCCCC2)cc1` [DYCLONINE], for which the AC50 in test [1] was more than 30 µM; in test [2] it was more than 30 µM; in test [3] it was more than 30 µM; in test [4] it was more than 10 µM; in [5] it was more than 10 µM; in test [6], more than 10 µM. Moreover, the AC50 in test [7] was more than 30 µM; in test [8], more than 30 µM; in [9] it was more than 10 µM; in [10], more than 10 µM.

As a reminder, the AC50 is the concentration at which the activity in the assay is half-maximal. Higher therefore signals activity only at high concentration.
